Test results: patent US20250034184A1, “QUATERNARY PHOSPHONIUM COMPOUNDS AND USES THEREOF” (Emory University, priority 2021, published 2025)

How the values were obtained:
[1] = test system: methicillin-susceptible S. aureus (SH1000); assay: microbe, parasite or virus in culture; type: cell-based
[2] = test system: hospital-acquired methicillin-resistant S. aureus (HA-MRSA; ATCC 33591); assay: microbe, parasite or virus in culture; type: cell-based
[3] = test system: Pseudomonas aeruginosa (PAO1); assay: microbe, parasite or virus in culture; type: cell-based
[4] = test system: Escherichia coli (MC4100); assay: microbe, parasite or virus in culture; type: cell-based
[5] = test system: Enterococcus faecalis (OG1RF); assay: microbe, parasite or virus in culture; type: cell-based
[6] = test system: community-acquired methicillin-resistant S. aureus (CA-MRSA; USA 300-0114); assay: microbe, parasite or virus in culture; type: cell-based

Compound	Minimum Inhibitory Concentration MSSA [1]	Minimum Inhibitory Concentration HA-MRSA [2]	Minimum Inhibitory Concentration Pa [3]	Lys20 (red blood cell (RBC))	Minimum Inhibitory Concentration E. coli [4]	Minimum Inhibitory Concentration E. faecalis [5]	Minimum Inhibitory Concentration CA-MRSA [6]	fold increase in activity compared to its 12-carbon analog [4]	fold increase in activity compared to BAC and CPC [3]	fold increase in activity compared to BAC and CPC [5]
CCCCCCCCCC[P+](CC[P+](CCCCCCCCCC)(c1ccccc1)c1ccccc1)(CC[P+](CCCCCCCCCC)(c1ccccc1)c1ccccc1)CC[P+](CCCCCCCCCC)(c1ccccc1)c1ccccc1 [4P-10,10,10,10, ((decylphosphoniotriyl)tris(ethane-2,1-diyl))tris(decyldiphenylphosphonium)]	16 µM	32 µM	>250 µM	8 µM	250 µM	250 µM	32 µM	–	–	–
CCCCCCCCCCC[P+](CC[P+](CCCCCCCCCCC)(c1ccccc1)c1ccccc1)(CC[P+](CCCCCCCCCCC)(c1ccccc1)c1ccccc1)CC[P+](CCCCCCCCCCC)(c1ccccc1)c1ccccc1 [4P-11,11,11,11, ((undecylphosphoniotriyl)tris(ethane-2,1-diyl))tris(diphenyl(undecyl)phosphonium)]	16 µM	125 µM	>250 µM	4 µM	125 µM	125 µM	32 µM	–	–	–
CCCCCCCCCCCC[P+](CC[P+](CCCCCCCCCCCC)(c1ccccc1)c1ccccc1)(CC[P+](CCCCCCCCCCCC)(c1ccccc1)c1ccccc1)CC[P+](CCCCCCCCCCCC)(c1ccccc1)c1ccccc1 [4P-12,12,12,12, ((dodecylphosphoniotriyl)tris(ethane-2,1-diyl))tris(dodecyldiphenylphosphonium)]	16 µM	63 µM	>250 µM	4 µM	250 µM	250 µM	16 µM	–	–	–
CCCCCCCCCCCCCCCC[n+]1ccccc1 [CPC, cetylpyridinium chloride, reference compound]	–	–	–	4 µM	–	–	–	–	–	–
CCCCCCCC[P+](CC[P+](CCCCCCCC)(c1ccccc1)c1ccccc1)(CC[P+](CCCCCCCC)(c1ccccc1)c1ccccc1)c1ccccc1 [P2P2P-8,8,8, ((octyl(phenyl)phosphoniodiyl)bis(ethane-2,1-diyl))bis(octyldiphenylphosphonium)]	2 µM	2 µM	>250 µM	16 µM	250 µM	250 µM	1 µM	–	–	–
CCCCCCCCCC[P+](CC[P+](CCCCCCCCCC)(c1ccccc1)c1ccccc1)(CC[P+](CCCCCCCCCC)(c1ccccc1)c1ccccc1)c1ccccc1 [P2P2P-10,10,10, ((decyl(phenyl)phosphoniodiyl)bis(ethane-2,1-diyl))bis(decyldiphenylphosphonium)]	2 µM	8 µM	>250 µM	2 µM	32 µM	250 µM	2 µM	–	–	–
CCCCCCCCCCC[P+](CC[P+](CCCCCCCCCCC)(c1ccccc1)c1ccccc1)(CC[P+](CCCCCCCCCCC)(c1ccccc1)c1ccccc1)c1ccccc1 [P2P2P-11,11,11, ((phenyl(undecyl)phosphoniodiyl)bis(ethane-2,1-diyl))bis(diphenyl(undecyl)phosphonium)]	2 µM	4 µM	>250 µM	1 µM	63 µM	63 µM	4 µM	–	–	–
CCCCCCCCCCCC[P+](CC[P+](CCCCCCCCCCCC)(c1ccccc1)c1ccccc1)(CC[P+](CCCCCCCCCCCC)(c1ccccc1)c1ccccc1)c1ccccc1 [P2P2P-12,12,12, ((dodecyl(phenyl)phosphoniodiyl)bis(ethane-2,1-diyl))bis(dodecyldiphenylphosphonium)]	2 µM	8 µM	>250 µM	1 µM	125 µM	125 µM	4 µM	–	–	–
CCCCCCCCCCCCC[P+](CC[P+](CCCCCCCCCCCCC)(c1ccccc1)c1ccccc1)(CC[P+](CCCCCCCCCCCCC)(c1ccccc1)c1ccccc1)c1ccccc1 [P2P2P-13,13,13, ((phenyl(tridecyl)phosphoniodiyl)bis(ethane-2,1-diyl))bis(diphenyl(tridecyl)phosphonium)]	2 µM	16 µM	>250 µM	2 µM	125 µM	125 µM	4 µM	–	–	–
CCCCCCCC[P+](c1ccccc1)(c1ccccc1)c1ccccc1 [TPP-8, octyltriphenylphosphonium]	4 µM	125 µM	>250 µM	63 µM	>250 µM	>250 µM	4 µM	–	–	–
CCCCCCCCCC[P+](c1ccccc1)(c1ccccc1)c1ccccc1 [TPP-10, decyltriphenylphosphonium]	1 µM	8 µM	250 µM	16 µM	250 µM	250 µM	2 µM	–	–	–
CCCCCCCCCCC[P+](c1ccccc1)(c1ccccc1)c1ccccc1 [TPP-11, triphenyl(undecyl)phosphonium]	1 µM	4 µM	250 µM	16 µM	125 µM	125 µM	1 µM	–	–	–
CCCCCCCCCCCC[P+](c1ccccc1)(c1ccccc1)c1ccccc1 [TPP-12, dodecyltriphenylphosphonium]	0.5 µM	2 µM	63 µM	8 µM	250 µM	63 µM	1 µM	–	–	–
CCCCCCCCCCCCC[P+](c1ccccc1)(c1ccccc1)c1ccccc1 [TPP-13, triphenyl(tridecyl)phosphonium]	1 µM	2 µM	32 µM	4 µM	4 µM	16 µM	1 µM	~63 fold	–	–
CCCCCCCCCCCCCC[P+](c1ccccc1)(c1ccccc1)c1ccccc1 [TPP-14, triphenyl(tetradecyl)phosphonium]	2 µM	2 µM	16 µM	4 µM	16 µM	8 µM	2 µM	–	–	–
CCCCCCCCCCCCCCCC[P+](c1ccccc1)(c1ccccc1)c1ccccc1 [TPP-16, hexadecyltriphenylphosphonium]	2 µM	4 µM	16 µM	4 µM	16 µM	4 µM	2 µM	–	~16 fold	~63 fold
